This passage reports T/C results from PubChem BioAssay AID248 (DTP/NCI, 2004).

The structures appear in SMILES notation. Values joined by “and” are separate entries in the source; they are usually repeats but may differ in a detail not shown here. Identical values can stand only once. Inconclusive results and toxic doses are left out.

In the test the test system is L1210 leukemia ip in BDF1 mice, survival T/C. In words: NCI In Vivo Anticancer Drug Screen. Data for tumor model L1210 Leukemia (intraperitoneal) in B6D2F1 (BDF1) mice. Conditions: endpoint: mean survival time, higher = longer survival. In short, it runs like this: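 Survival endpoint. Drug-treated group vs vehicle group, expressed as T divided by C. Tumor passaged by transplantation.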

Setting [1] is: dose: 25.0 mg/kg/injection, schedule: Q04DX003 (ip), vehicle: saline.
[2] abbreviates: dose: 50.0 mg/kg/injection, schedule: Q01DX009 (ip), vehicle: saline.
The mark [3] stands for this setting: dose: 50.0 mg/kg/injection, schedule: Q04DX003 (ip), vehicle: saline.
Where [4] appears, read: dose: 100.0 mg/kg/injection, schedule: Q01DX009 (ip), vehicle: saline.
[5] abbreviates: dose: 100.0 mg/kg/injection, schedule: Q04DX003 (ip), vehicle: saline.
Where [6] appears, read: dose: 200.0 mg/kg/injection, schedule: Q04DX003 (ip), vehicle: saline.
Where [7] appears, read: dose: 400.0 mg/kg/injection, schedule: Q04DX003 (ip), vehicle: saline.
The mark [8] stands for this setting: dose: 200.0 mg/kg/injection, schedule: Q04DX002 (ip), vehicle: saline.
The mark [9] stands for this setting: dose: 400.0 mg/kg/injection, schedule: Q04DX002 (ip), vehicle: saline.

Take `COCC(O)C(OC)C(OC)C(C=O)NC(=O)NCCCl` (configuration not stated): the T/C reads like this: (dose: 100.0 mg/kg/injection, schedule: Q01DX001 (ip), vehicle: Klucel (hydroxypropylcellulose) (HPC)) 102 % of control; (dose: 200.0 mg/kg/injection, schedule: Q01DX001 (ip), vehicle: Klucel (hydroxypropylcellulose) (HPC)) 103 % of control; (dose: 400.0 mg/kg/injection, schedule: Q01DX001 (ip), vehicle: Klucel (hydroxypropylcellulose) (HPC)) 100 % of control.

Regarding `CC(C)NNC(=O)C(C)O` (configuration not stated), the T/C is 93 % of control (dose: 25.0 mg/kg/injection, schedule: Q01DX009 (ip), vehicle: saline); 109 % of control under setting [1]; 90 % of control under setting [2]; 96 % of control under setting [3]; 97 % of control under setting [4]; 93 % of control under setting [5]. Further, the T/C by setting is: (dose: 200.0 mg/kg/injection, schedule: Q01DX009 (ip), vehicle: saline) 87 % of control; under setting [6], 112 % of control; (dose: 400.0 mg/kg/injection, schedule: Q01DX009 (ip), vehicle: saline) 95 % of control; under setting [7], 96 % of control.

For `O=C(NCCCl)NC1CCCCC1O` (configuration not stated), the T/C (dose: 100.0 mg/kg/injection, schedule: Q04DX002 (ip), vehicle: saline) was 98 % of control; the T/C under setting [8] is 91 % of control; the T/C under setting [9] is 102 % of control.

With `O=C1NC(=O)C([N+](=O)[O-])C(=O)N1`, the T/C reads like this: (dose: 12.5 mg/kg/injection, schedule: Q04DX003 (ip), vehicle: saline) 104 % of control; under setting [1], 95 % of control; under setting [3], 93 % of control; under setting [6], 98 % of control; under setting [7], 91 % of control.

Turning to `CC(C)(C)CN`, the T/C is, setting by setting: under setting [2], 98 % of control; under setting [4], 93 % of control; under setting [5], 102 % of control; under setting [6], 98 % of control.

For the molecule `O=c1[nH]c2ccccc2o1`, the T/C by setting is: (dose: 75.0 mg/kg/injection, schedule: Q01DX001 (ip), vehicle: Klucel (hydroxypropylcellulose) (HPC)) 101 % of control; (dose: 150.0 mg/kg/injection, schedule: Q01DX001 (ip), vehicle: Klucel (hydroxypropylcellulose) (HPC)) 100 % of control; under setting [8], 92 % of control; (dose: 300.0 mg/kg/injection, schedule: Q01DX001 (ip), vehicle: Klucel (hydroxypropylcellulose) (HPC)) 103 % of control; under setting [9], 114 % of control.

Regarding `O=C(Nc1ccccc1F)Nc1cc([N+](=O)[O-])ccc1Cl`, the T/C was 87 % of control (dose: 100.0 mg/kg/injection, schedule: Q01DX009 (ip), vehicle: Klucel (hydroxypropylcellulose) (HPC)); 94 % of control (dose: 200.0 mg/kg/injection, schedule: Q01DX009 (ip), vehicle: Klucel (hydroxypropylcellulose) (HPC)); 87 % of control (dose: 400.0 mg/kg/injection, schedule: Q01DX009 (ip), vehicle: Klucel (hydroxypropylcellulose) (HPC)).

Take `COc1ccc(Cc2ccccc2)c(O)c1`: the T/C runs as follows: (dose: 100.0 mg/kg/injection, schedule: Q01DX009 (ip), vehicle: other) 93 % of control; (dose: 100.0 mg/kg/injection, schedule: Q04DX003 (ip), vehicle: other) 99 % of control; (dose: 200.0 mg/kg/injection, schedule: Q01DX009 (ip), vehicle: other) 111 % of control; (dose: 200.0 mg/kg/injection, schedule: Q04DX003 (ip), vehicle: other) 97 % of control; (dose: 400.0 mg/kg/injection, schedule: Q04DX003 (ip), vehicle: other) 91 % of control.

Turning to `O=C(O)Cc1c(-c2ccccn2)[nH]c2ccccc12`, the T/C by setting is: (dose: 75.0 mg/kg/injection, schedule: Q01DX001 (ip), vehicle: acetone) 103 % of control; (dose: 150.0 mg/kg/injection, schedule: Q01DX001 (ip), vehicle: acetone) 102 % of control; (dose: 300.0 mg/kg/injection, schedule: Q01DX001 (ip), vehicle: acetone) 94 % of control.

On to `CCCCCCCC(=O)N1CCOCC1`, for which the T/C (dose: 50.0 mg/kg/injection, schedule: Q04DX003 (ip), vehicle: saline with Tween-80) is 96 % of control.

In the case of `CC1(C)C2CCC1C(O)C2` (configuration not stated), the T/C is, setting by setting: (dose: 75.0 mg/kg/injection, schedule: Q01DX009 (ip), vehicle: saline) 104 % of control; (dose: 150.0 mg/kg/injection, schedule: Q01DX009 (ip), vehicle: saline) 103 % of control; (dose: 300.0 mg/kg/injection, schedule: Q01DX009 (ip), vehicle: saline) 94 % of control.

On to `CCCc1cc(=O)[nH]c(=S)[nH]1`, for which the T/C (dose: 100.0 mg/kg/injection, schedule: Q04DX003 (ip), vehicle: Klucel (hydroxypropylcellulose) (HPC)) is 93 % of control; the T/C (dose: 200.0 mg/kg/injection, schedule: Q04DX003 (ip), vehicle: Klucel (hydroxypropylcellulose) (HPC)) was 96 % of control; the T/C (dose: 400.0 mg/kg/injection, schedule: Q04DX003 (ip), vehicle: Klucel (hydroxypropylcellulose) (HPC)) is 101 % of control.

As for `COC1OC2COC(c3ccccc3)OC2C(NC(C)=O)C1OS(C)(=O)=O` (configuration not stated), the T/C was 101 % of control (dose: 100.0 mg/kg/injection, schedule: Q04DX002 (ip), vehicle: Klucel (hydroxypropylcellulose) (HPC)); 101 % of control (dose: 200.0 mg/kg/injection, schedule: Q04DX002 (ip), vehicle: Klucel (hydroxypropylcellulose) (HPC)); 105 % of control (dose: 400.0 mg/kg/injection, schedule: Q04DX002 (ip), vehicle: Klucel (hydroxypropylcellulose) (HPC)).

Regarding `NC(N)=N/N=C/c1ccc([N+](=O)[O-])cc1`, the T/C is 95 % of control (dose: 15.0 mg/kg/injection, schedule: Q01DX Z (ip), vehicle: saline); 95 % of control (dose: 30.0 mg/kg/injection, schedule: Q01DX Z (ip), vehicle: saline); 104 % of control (dose: 30.0 mg/kg/injection, schedule: Q01DX Z (oral), vehicle: other); 90 % of control (dose: 60.0 mg/kg/injection, schedule: Q01DX Z (ip), vehicle: saline); 100 % of control (dose: 60.0 mg/kg/injection, schedule: Q01DX Z (oral), vehicle: other); 88 % of control (dose: 120.0 mg/kg/injection, schedule: Q01DX Z (oral), vehicle: other).

Take `O=C(CCN1CC1)OCCOC(=O)CCN1CC1`: the T/C was 97 % of control (dose: 7.1 mg/kg/injection, schedule: Q01DX Z (ip), vehicle: methylcellulose (MC)); 121 % of control (dose: 7.2 mg/kg/injection, schedule: Q01DX005 (ip), vehicle: saline); 113 % of control (dose: 10.6 mg/kg/injection, schedule: Q01DX Z (ip), vehicle: methylcellulose (MC)); 109 % of control (dose: 12.5 mg/kg/injection, schedule: Q04DX003 (ip), vehicle: acetone); 113 % of control and 120 % of control (dose: 16.0 mg/kg/injection, schedule: Q01DX Z (ip), vehicle: methylcellulose (MC)); 101 % of control (dose: 16.5 mg/kg/injection, schedule: Q04DX003 (ip), vehicle: acetone). Further, the T/C is, setting by setting: (dose: 16.5 mg/kg/injection, schedule: Q04DX003 (ip), vehicle: saline) 110 % of control; (dose: 22.0 mg/kg/injection, schedule: Q01DX001 (ip), vehicle: saline) 122 % of control; (dose: 24.0 mg/kg/injection, schedule: Q01DX Z (ip), vehicle: methylcellulose (MC)) 98 % of control and 103 % of control; (dose: 25.0 mg/kg/injection, schedule: Q01DX009 (ip), vehicle: acetone) 150 % of control; (dose: 25.0 mg/kg/injection, schedule: Q04DX003 (ip), vehicle: acetone) 103 % of control; (dose: 37.5 mg/kg/injection, schedule: Q01DX009 (ip), vehicle: acetone) 160 % of control. Also, the T/C was 106 % of control (dose: 37.5 mg/kg/injection, schedule: Q04DX003 (ip), vehicle: acetone); 105 % of control (dose: 37.5 mg/kg/injection, schedule: Q04DX003 (ip), vehicle: saline); 124 % of control (dose: 50.0 mg/kg/injection, schedule: Q04DX003 (ip), vehicle: acetone); 155 % of control (dose: 55.0 mg/kg/injection, schedule: Q01DX005 (ip), vehicle: saline).

Turning to `CN(C)CCCN1CC2CCCC1O2` (configuration not stated), the T/C is, setting by setting: (dose: 50.0 mg/kg/injection, schedule: Q01DX001 (ip), vehicle: saline) 90 % of control; (dose: 100.0 mg/kg/injection, schedule: Q01DX001 (ip), vehicle: saline) 102 % of control; (dose: 200.0 mg/kg/injection, schedule: Q01DX001 (ip), vehicle: saline) 100 % of control; (dose: 400.0 mg/kg/injection, schedule: Q01DX001 (ip), vehicle: saline) 94 % of control.
